Laboratory results reported in US6811790B1, “Storage stable pesticide formulations containing azadirachtin” (E.I.D. Parry (India) Ltd., priority 2000, dated 2004).
Like-named read-outs stand apart in the source and are kept apart here.

Assays:
[1] = Stability of azadirachtin A in a formulation, accelerated storage test and real time conditions; type: physicochemical
Experimental: The behavior of azadirachtin in real time and in accelerated conditions (especially at 54° C.) is quite different.

[2] = 25 days at 29+/−1° C., cited from earlier work

C/C=C(\C)C(=O)O[C@H]1C[C@@H](OC(C)=O)[C@@]2(C(=O)OC)CO[C@H]3[C@@H](O)[C@@](C)([C@]45O[C@@]4(C)[C@@H]4C[C@H]5O[C@@H]5OC=C[C@@]54O)[C@H]4[C@]1(CO[C@]4(O)C(=O)OC)[C@@H]32 [azadirachtin A]
degradation of azadirachtin A ([1]; accelerated storage test at 54° C., after 14 days): 66%
degradation of azadirachtin A per month ([1]; real time conditions at 20° C.): approximately 0.9 % per month
total degradation of azadirachtin A per year ([1]; real time conditions at 20° C.): 11 % per year
degradation of azadirachtin A ([2]; in ethanol and water): about 80%
degradation of azadirachtin A ([2]; in methanol and acetone): 50%
degradation of azadirachtin A ([2]; in methylene chloride, carbon tetrachloride and chloroform): 75-80%
